From patent US6514965B1, “Substituted 1-benzazepines and derivatives thereof” (Antex Pharma Inc., priority 1999, dated 2003)

System: bacteria
Experiment: MIC, broth dilution method (antibacterial activity)
Assay type: cell-based
Conditions: optical density of organisms with and without test compound, bacterial species not stated
Description: Antibacterial activity can be determined by several standard methods well known by those skilled in the art, including disc diffusions methods, broth dilution minimal inhibitory concentration (MIC) methods, etc., including the detailed method outlined below.
MIC, Broth Dilution Method
Cultures of bacteria are initially brought up from the freezer stocks onto chocolate agar plates by streaking a loop-full, then incubated for 18 hours at 35-37° C. in a 5% CO2 incubator.
Five to 10 colonies are picked from the chocolate agar plate for subculture to Brain-Heart Infusion (BHI) broth or Mueller Hinton broth or BHI containing 4% serum and incubated as described.
Evaluate the optical density of the organisms with and without the test compound. The optical density of the organisms in the presence of an active compound will be less than the optical density of the same organism untreated. The activity of the compounds is described as either negative or the lowest concentration inhibiting growth. The results are depicted in Table III, where +/− represents the least activity and ++++ represents the greatest activity.

| Compound | Antibacterial Activity |
| --- | --- |
| CCN1C(=O)CCCc2cc(N3CCN(C)CC3)c(OC)cc21 [Example 10] | +/− |
| CC(C)(C)[Si](C)(C)Oc1ccc2c(c1)NC(=O)CCC2 [Example 36, 8-(tert-butyldimethylsilyloxy)-2,3,4,5-tetrahydro-1H-1-benzazepine-2-one] | ++++ |
| COc1cc2c(cc1N1CCN(C(=O)OCc3ccccc3)CC1)CCC(C(=O)OC(C)(C)C)C(=O)N2Cc1cccc(F)c1 (racemic) [Example 31, 7-[(4-Benzyloxycarbonyl)piperazin-1-yl]-3(R,S)-tert-butoxycarbonyl-1-(3-fluorobenzyl)-8-methoxy-2,3,4,5-tetrahydro-1H-1-benzazepine-2-one] | ++++ |

System: not given
Experiment: not given
Conditions: not given

| melting point | Compound |
| --- | --- |
| 120 to 121 °C | CCN1C(=O)C(C(=O)O)CCc2ccc(OC)cc21 (racemic) [Example 5, 3(R,S)-Carboxyl-1-ethyl-8-methoxy-2,3,4,5-tetrahydro-1H-1-benzazepine-2-one] |
| 71 to 73 °C (dec.) | CCN1C(=O)C(Br)(C(=O)OC)CCc2cc(Br)c(OC)cc21 (racemic) [Example 27, 3,7-Dibromo-1-ethyl-3(R,S)-methoxycarbonyl-8-methoxy-2,3,4,5-tetrahydro-1H-1-benzazepine-2-one] |
| 133 to 135 °C | CCN1C(=O)CCCc2cc(Br)c(OC)cc21 [Example 9, 7-Bromo-1-ethyl-8-methoxy-2,3,4,5-tetrahydro-1H-1-benzazepine-2-one] |
| 89 to 91 °C | CCOC(=O)C1CCc2ccc(OC)cc2NC1=O (racemic) [Example 3, 3(R,S)-Ethoxycarbonyl-8-methoxy-2,3,4,5-tetrahydro-1H-1-benzazepine-2-one] |
| 180 to 182 °C | COc1cc2c(cc1Br)CCCC(=O)N2 [Example 24, 7-Bromo-8-methoxy-2,3,4,5-tetrahydro-1H-1-benzazepine-2-one] |
| 173 to 176 °C (dec.) | CCN1C(=O)C(C(=O)O)CCc2cc(N3CCNCC3)c(OC)cc21.Cl (racemic) [Example 15, 3(R,S)-Carboxyl-1-ethyl-8-methoxy-7-(piperazin-1-yl)-2,3,4,5-tetrahydro-1H-1-benzazepine-2-one Hydrochloride] |
| 226 to 227 °C | O=C1CCCc2ccc(O)cc2N1 [Example 33, 8-Hydroxy-2,3,4,5-tetrahydro-1H-1-benzazepine-2-one] |
| 105 to 106 °C | COc1ccc2c(c1)NC(=O)CCC2 [Example 2, 8-Methoxy-2,3,4,5-tetrahydro-1H-1-benzazepine-2-one] |
| 188 to 189 °C (dec.) | CCN1C(=O)C(C(=O)O)CCc2cc(Br)c(OC)cc21 (racemic) [Example 17, 7-Bromo-3(R,S)-carboxyl-1-ethyl-8-methoxy-2,3,4,5tetrahydro-1H-1-benzazepine-2-one] |

| Compound | melting point |
| --- | --- |
| COc1ccc2c(c1)NC(=O)C(C(=O)OC(C)(C)C)CC2 (racemic) [Example 11, 3(R,S)-tert-Butoxycarbonyl-8-methoxy-2,3,4,5-tetrahydro-1H-1-benzazepine-2-one] | 145 to 147 °C |
| COc1ccc2c(c1)N(C(=O)OC(C)(C)C)C(=O)C(C(=O)OC(C)(C)C)CC2 (racemic) [Example 23, 1-tert-Butoxycarbonyl-3(R,S)-tert-butoxycarbonyl-8-methoxy-2,3,4,5-tetrahydro-1H-1-benzazepine-2-one] | 91 to 92 °C |
| CCN1C(=O)C(C(=O)OC(C)(C)C)C=Cc2ccc(OC)cc21 (racemic) [Example 16, 3(R,S)-tert-Butoxycarbonyl-1-ethyl-8-methoxy-2,3-dihydro-1H-1-benzazepine-2-one] | 173 to 174 °C |
| COc1cc2c(cc1Br)CCC(C(=O)OC(C)(C)C)C(=O)N2Cc1cccc(F)c1 (racemic) [Example 30, 7-Bromo-3(R,S)-tert-butoxycarbonyl-1-(3-fluorobenzyl)-8-methoxy-2,3,4,5-tetrahydro-1H-1-benzazepine-2-one] | 146 to 148 °C |
| CCN1C(=O)C(C(=O)OC(C)(C)C)CCc2cc(Br)c(OC)cc21 (racemic) [Example 13, 7-Bromo-3(R,S)-tert-butoxycarbonyl-1-ethyl-8-methoxy-2,3,4,5-tetrahydro-1H-1-benzazepine-2-one] | 131 to 132 °C |
| CCN1C(=O)C(C(=O)OC(C)(C)C)CCc2cc(N3CCNCC3)c(OC)cc21 (racemic) [Example 18, 3(R,S)-tert-Butoxycarbonyl-1-ethyl-8-methoxy-7-(piperazin-1-yl)-2,3,4,5-tetrahydro-1H-1-benzazepine-2-one] | 165 °C (dec.) |
| COc1cc2c(cc1Br)CCC(C(=O)OC(C)(C)C)C(=O)N2 (racemic) [Example 32, 7-Bromo-3(R,S)-tert-butoxycarbonyl-8-methoxy-2,3,4,5-tetrahydro-1H-1-benzazepine-2-one] | 207 to 208 °C |
| CCN1C(=O)C(C(=O)OC(C)(C)C)CCc2ccc(OC)cc21 (racemic) [Example 12, 3(R,S)-tert-Butoxycarbonyl-1-ethyl-8-methoxy-2,3,4,5-tetrahydro-1H-1-benzazepine-2-one] | 132 to 133 °C |
